Source: patent US20180037923A1, “SELECTIVE DETECTION OF LACTIC ACID AND/OR ACETIC ACID BACTERIA OR OF FUNGI” (priority 2015, published 2018)
Values joined by “and” are separate entries in the source; they are usually repeats but may differ in a detail not shown here. Equal values may be shown once.

How the values were obtained:
[1] = test system: yeasts; assay: Microscopic examination and methylene blue staining of yeasts after antifungal; assay type: cell-based
Excerpt: (§1) The toxicity results on yeasts and on bacteria are presented in the table below displaying the duration of exposure of the fungal flora to molecule A1 and the associated fluorescence measurement: yeasts lysis after exposure to the antifungal was confirmed by microscopic examination and methylene blue staining.

[2] = test system: Brettanomyces bruxellensis; assay: Atp bioluminescence, simplified protocol, with plate count; assay type: cell-based; conditions: Treated 8 h antifungal contact time
Description: Use of […] transparent Greiner Bio One sterile flat bottom disposable cuvettes with Biothema AB bioluminescence reagents • 1. […] Addition of 150 μL of “ATP Reagent HS”, Homogenization. • 4.

[3] = test system: lactic acid bacteria and acetic acid bacteria; assay: Bactericidal action on the bacterial flora (conclusion from agar plate counts); assay type: cell-based; conditions: bactericide = reduction by at least three decimal logarithms of CFU/ml
Excerpt: (§2) The word “bactericide” refers to a treatment having the effect of reducing a bacterial population by at least three decimal logarithms of colony forming units/ml on an agar plate count of a sample after treatment.
as §1
(§3) The toxicity results on yeasts and on bacteria are presented in the table below displaying the duration of exposure of the fungal flora to the molecule A2 and are obtained by enumeration on MRS agar media.

[4] = test system: Lactobacillus parabuchneri DSM 5708; assay: Agar plate count after contact with antifungal; assay type: cell-based; conditions: count at contact time 0 h 1.4.10^6 CFU/mL
Excerpt: as §2, §1
(§4) The words “contact time” refer to below, the time of exposure of the microorganisms to the fungicidal product, here molecule A1.
(§5) Below: “No CFU” is the abbreviation for “No Colony forming unit on agar plate count”.
as §3

[5] = test system: Lactobacillus brevis IFBM; assay: Agar plate count after contact with antifungal; assay type: cell-based; conditions: count at contact time 0 h 7.10^5 CFU/mL
Excerpt: as §2, §1, §4, §5, §3

[6] = test system: Oenococcus oeni DSM 20252; assay: Agar plate count after contact with antifungal; assay type: cell-based
Excerpt: as §2, §1, §4, §5, §3

[7] = test system: Pedicoccus damnosus IFBM; assay: Agar plate count after contact with antifungal; assay type: cell-based
Excerpt: as §2, §1, §4, §5, §3

[8] = test system: Zyggosaccharomyces bailii; assay: Agar plate count after contact with antifungal; assay type: cell-based; conditions: 400 mg/L; count at contact time 0 h 3.10^5 CFU/mL
Excerpt: as §2, §1, §4, §5, §3

[9] = test system: Lactobacillus paracasei IFBM; assay: Agar plate count after contact with antifungal; assay type: cell-based; conditions: count at contact time 0 h 1.4.10^7 CFU/mL
Excerpt: as §2, §1, §4, §5, §3

[10] = test system: Dekkera anomala IFBM; assay: Agar plate count after contact with antifungal; assay type: cell-based; conditions: 400 mg/L; count at contact time 0 h 1.10^5 CFU/mL
Excerpt: as §2, §1, §4, §5, §3

[11] = test system: Acetobacter aceti DSM 3508; assay: Agar plate count after contact with antifungal; assay type: cell-based; conditions: count at contact time 0 h 2.9.10^7 CFU/mL
Excerpt: as §2, §1, §4, §5, §3

[12] = test system: Brettanomyces bruxellensis Wyeast labs; assay: Agar plate count after contact with antifungal; assay type: cell-based
Excerpt: as §2, §1, §4, §5, §3

[13] = test system: Lactobacillus lindneri DSM 20690; assay: Agar plate count after contact with antifungal; assay type: cell-based
Excerpt: as §2, §1, §4, §5, §3

[14] = test system: G. oxydans DSM 7145; assay: Agar plate count after contact with antifungal; assay type: cell-based, Gluconobacter oxydans
Excerpt: as §2, §1, §4, §5, §3

[15] = test system: Oenococcus oeni DSM; assay: Atpmetry check, initial protocol (Filtravette), with plate count; assay type: cell-based; conditions: 4 h contact time; without antifungal 0.9.10^7 CFU/500 μL
Description: (§6) For the molecule A1, an Atpmetry check of the fungal flora destruction and of the antifungal treatment harmlesness on the lactic acid or acetic acid bacterial flora has been done for a contact time of 4 hours or 8 hours and on different strains.
(§7) Strains tested: Oenococcus oeni DSM, Gluconobacter oxydans, B. bruxellensis, S. cerevisae, prepared in MRS broth.
(§8) Materials: Lum-1 ATP meter (model analogous to Profile-1 bioluminometer from New Horizons Diagnostics) was tested with Biothema Ab bioluminescence reagents, namely reagents “ATP Eliminating Buffer”, “Extractant B/S”, “ATP Reagent HS” and 0.45 μm porosity Filtravette™ cuvette-filters from New Horizons Diagnostics.
(§9) Addition of 500 μL of the suspension without fungicidal treatment or with fungicidal treatment inside a 10 mL plastic syringe containing at its end a cell concentrator incorporating a Filtravette™.
(§10) Filtration through the Filtravette™
(§11) Filtravette™ deposit on a Filtravette™ holder with a blotter pad below
(§12) Addition of 50 μL of “ATP Eliminating Buffer” inside the Filtravette
(§13) 10 minutes incubation at room temperature
(§14) Flushing of the “ATP Eliminating Buffer” Reagent through the blotter pad by positive pressure
(§15) Homogenization and 1 minute incubation.
(§16) Addition of 240 μL of “ATP Reagent HS”. Homogenization.
(§17) Insertion of the Filtravette into the Lum-1 drawer and closure of the drawer.

[16] = test system: Gluconobacter oxydans; assay: as above; assay type: cell-based
Description: as §6, §7, §8, §9, §10, §11, §12, §13, §14, §15, §16, §17

[17] = test system: Saccharomyces cerevisae DSM; assay: as above; assay type: cell-based; conditions: Antifungal 4 h contact time
Description: as §6, §7, §8, §9, §10, §11, §12, §13, §14, §15, §16, §17

[18] = test system: Brettanomyces bruxellensis; assay: as above; assay type: cell-based; conditions: 4 h contact time; without antifungal 2.8.10^6 CFU/500 μL
Description: as §6, §7, §8, §9, §10, §11, §12, §13, §14, §15, §16, §17

[19] = test system: Saccharomyces diastaticus; assay: Atp bioluminescence, simplified protocol, with plate count; conditions: Treated (4 h)
[20] = 200 mg/L, count at contact time 0 h 6.10^6 CFU/mL

With C[C@@H]1[C@H](O)[C@@H](C)/C=C/C=C/C=C/C=C/C=C/C=C/C=C/[C@H](O[C@@H]2O[C@H](C)[C@@H](O)[C@H](N)[C@@H]2O)C[C@@H]2O[C@](O)(C[C@@H](O)C[C@@H](O)[C@H](O)CC[C@@H](O)C[C@@H](O)CC(=O)O[C@H]1C)C[C@H](O)[C@H]2C(=O)O [Molecule A1, Amphotericin B] the “yeasts lysis after exposure to the antifungal” value [1] was “confirmed”, the “total bioluminescence with lysis agent” value ([2]; start 2.7.10^2 CFU/100 μL, untreated with lysis agent 26990 and 31661, background 862 and 718 RLU) was 933 RLU and 553 RLU and the “total bioluminescence with lysis agent” value ([2]; start 2.7.10^3 CFU/100 μL, untreated with lysis agent 242958 and 265513, background 5346 and 5390 RLU) was 4441 RLU and 4433 RLU. The Concentration after treatment ([2]; untreated 2.7.10^2 CFU/100 μL) was 0 CFU/100 μL, the Concentration after treatment ([2]; untreated 2.7.10^3 CFU/100 μL) was 0 CFU/100 μL and the “Bactericidal action on lactic acid and acetic acid flora” value ([3]; doses of 200 mg/liter) was “non-bactericidal for lactic acid bacteria and acetic acid bacteria”. For the same molecule, the “Bactericidal action on lactic acid and acetic acid flora” value ([3]; doses of 400 mg/liter) was “non-bactericidal”, the “Agar plate count contact time 4 h” value ([4]; 200 mg/L) was 1.10^6 CFU/mL and the “Agar plate count contact time 4 h” value ([4]; 400 mg/L) was 3.10^5 CFU/mL. For the same molecule, the “Agar plate count contact time 4 h” value ([5]; 200 mg/L) was 2.9.10^5 CFU/mL, the “Agar plate count contact time 4 h” value ([5]; 400 mg/L) was 3.10^5 CFU/mL and the “Agar plate count contact time 4 h” value ([6]; 200 mg/L, count at contact time 0 h 4.10^9 CFU/mL) was 6.10^9 CFU/mL. The “Agar plate count contact time 4 h” value ([6]; 400 mg/L, count at contact time 0 h 4.10^7 CFU/mL) was 5.10^7 CFU/mL, the “Agar plate count contact time 4 h” value ([7]; 200 mg/L, count at contact time 0 h 7.2.10^5 CFU/mL) was 8.10^5 CFU/mL and the “Agar plate count contact time 4 h” value ([7]; 400 mg/L, count at contact time 0 h 1.1.10^5 CFU/mL) was 2.10^7 CFU/mL. For the same molecule, the “Agar plate count contact time 4 h” value [8] was “No CFU”, the “Agar plate count contact time 4 h” value ([9]; 200 mg/L) was 2.4.10^7 CFU/mL and the “Agar plate count contact time 4 h” value ([9]; 400 mg/L) was 1.10^7 CFU/mL. For the same molecule, the “Agar plate count contact time 4 h” value [10] was “No CFU”, the “Agar plate count contact time 4 h” value ([11]; 200 mg/L) was 8.10^8 CFU/mL and the “Agar plate count contact time 4 h” value ([11]; 400 mg/L) was 3.10^7 CFU/mL. For the same molecule, the “Agar plate count contact time 4 h” value [12, 20] was “No CFU”, the “Agar plate count contact time 4 h” value ([12]; 400 mg/L, count at contact time 0 h 3.10^5 CFU/mL) was “No CFU” and the “Agar plate count contact time 4 h” value [13, 20] was 2.10^6 CFU/mL. The “Agar plate count contact time 4 h” value ([13]; 400 mg/L, count at contact time 0 h 6.10^5 CFU/mL) was 7.10^4 CFU/mL, the “Agar plate count contact time 4 h” value ([14]; 200 mg/L, count at contact time 0 h 8.10^8 CFU/mL) was 1.10^9 CFU/mL and the “Agar plate count contact time 4 h” value ([14]; 400 mg/L, count at contact time 0 h 8.10^7 CFU/mL) was 9.10^7 CFU/mL. For the same molecule, the “Plate count with antifungal” value [15] was 4.10^6 CFU/500 μL, the “Atp bioluminescence with antifungal treatment” value (“Atp bioluminescence” below) ([16]; MRS broth, 500 μL analysed, 1.10^7 CFU/500 μL before treatment, 115966 RLU) was 77057 RLU and the “Plate count with antifungal” value ([16]; before treatment 1.10^7 CFU/500 μL) was 4.1.10^6 CFU/500 μL. The “Agar plate count with antifungal” value ([17]; start 5.10^2 CFU/500 μL) was “time no count on agar”, the “Atp bioluminescence” value ([17]; start 5.10^2 CFU/500 μL, untreated 206949 and 149508 RLU) was 642 RLU and the “Agar plate count with antifungal” value ([17]; start 5.10^3 CFU/500 μL) was “time no count on agar”. For the same molecule, the “Atp bioluminescence” value ([17]; start 5.10^3 CFU/500 μL, untreated >1000000 RLU) was 4665 RLU, the “Plate count with antifungal” value [18] was 0 CFU/500 μL and the “total bioluminescence in duplicate with lysis agent” value ([19]; start 7.5.10^1 CFU/100 μL, untreated + extractant 1934 and 1241 RLU) was 482 RLU. For the same molecule, the “luminescent backgroud noise in duplicate without lysis agent after luciferin/luciferase addition” value ([19]; start 7.5.10^1 CFU/100 μL, untreated background 34 and 34 RLU) was 457 RLU and 436 RLU, the “total bioluminescence in duplicate with lysis agent” value ([19]; start 7.5.10^2 CFU/100 μL, untreated + extractant 16239 and 16707 RLU) was 4393 RLU and the “luminescent backgroud noise in duplicate without lysis agent after luciferin/luciferase addition” value ([19]; start 7.5.10^2 CFU/100 μL, untreated background 211 and 223 RLU) was 3803 RLU and 3837 RLU. The Concentration after treatment ([19]; untreated 7.5.10^1 CFU/100 μL) was 0 CFU/100 μL and the Concentration after treatment ([19]; untreated 7.5.10^2 CFU/100 μL) was 0 CFU/100 μL.
